Like-named read-outs stand apart in the source and are kept apart here.
Key:
[1] = in vivo; cited from earlier work
mice = conditions: cited from earlier work
patients with AD = conditions: cited from earlier work
K^+ transport = assay: K^+ transport: ^86 Rb uptake by P3 membrane fractions of whole mouse brain; type: biochemical, Swiss mice; conditions: for IC50: ^86 Rb uptake, P3 fraction, 0° C., pH 7, 5 seconds; for K^+ transport inhibition activity relative to amodiaquin (in words): fraction of amodiaquin's activity; for K^+ Transport Relative Potency: relative to amodiaquin = 1; for Concentration inhibiting K^+ transport (selection criterion met): submillimolar concentrations
Procedure: To obtain the data set forth in Table I, K^+ -transport was measured using P3 membrane fractions prepared from whole brains of Swiss mice. […] The resulting supernatant was centrifuged at 17,000 g for 15 minutes, and the supernatant from the latter was centrifuged at 70,000 g for 1 hour to pellet the P3 fraction. The P3 pellet was washed by resuspension in 50 mM Tris-citrate (pH 7.3). After 10 minutes on ice, the suspension was centrifuged at 70,000 g for 10 minutes. This washing procedure was repeated twice using distilled water for the resuspension. […] The suspension (2-3 mg protein/ml) was stabilized on ice for 1 hour prior to use. Uptake of ^86 Rb (radioactive) was used to assess the K^+ -transport of the P3 articles. Many published experiments have shown the ^86 Rb, with a half-life 36 times longer than ^42 K, is a suitable tracer for K. Rb permeates neuronal K channels as well as does K itself.
After filtration of the samples, the filters were washed rapidly three times with 10^-3 M triethanolamine containing 0.1M RbCl (non-radioactive) and counted in ACS liquid scintillation cocktail (Amersham). In calculating the results, the uptake found in the presence of 0.1M non-radioactive RbCl was subtracted from that found in the presence of various concentrations of the test substances in the presence of 10^-6 M ^86 RbCl alone. […] Between 0.2 and 0.5 mg/ml usually were employed. The results were normalized by calculating them as percentages of the uptake observed with 10^-6 M ^86 RbCl alone.

cholinesterase = conditions: cited from earlier work
Acetylcholinesterase = target: T1, Acetylcholinesterase (Electrophorus electricus, UniProt O42275); assay: Acetylcholinesterase activity, acetylthiocholine substrate, colorimetric (Ellman); type: biochemical, electric eel; conditions: for Cholinesterase inhibitory potency relative to amodiaquin (in words): fraction of amodiaquin's inhibitory potency; for Acetylcholinesterase Activity Rank Order: rank among the five substances; for Acetylcholinesterase Activity Relative Potency: relative to amodiaquin = 1
T1 construct: The enzyme employed was prepared from the electric organ of the electric eel; from tissue; host or cells: electric organ of the electric eel
T1 sequence (O42275 24-633): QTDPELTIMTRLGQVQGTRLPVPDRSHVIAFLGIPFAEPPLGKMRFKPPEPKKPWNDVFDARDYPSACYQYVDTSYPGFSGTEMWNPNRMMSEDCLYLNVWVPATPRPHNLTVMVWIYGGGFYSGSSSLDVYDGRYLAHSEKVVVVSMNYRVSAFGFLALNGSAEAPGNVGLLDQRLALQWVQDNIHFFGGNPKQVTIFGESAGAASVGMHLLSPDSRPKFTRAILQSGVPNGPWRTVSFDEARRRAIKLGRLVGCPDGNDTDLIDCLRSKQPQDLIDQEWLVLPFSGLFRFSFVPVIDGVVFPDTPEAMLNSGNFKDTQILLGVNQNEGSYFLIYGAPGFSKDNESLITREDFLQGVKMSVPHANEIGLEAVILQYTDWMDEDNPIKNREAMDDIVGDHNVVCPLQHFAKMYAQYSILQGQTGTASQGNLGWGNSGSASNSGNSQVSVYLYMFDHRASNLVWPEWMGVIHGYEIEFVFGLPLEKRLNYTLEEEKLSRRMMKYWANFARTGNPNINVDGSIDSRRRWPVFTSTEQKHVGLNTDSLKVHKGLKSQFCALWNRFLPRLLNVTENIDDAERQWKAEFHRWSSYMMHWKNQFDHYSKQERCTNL
Procedure: Cholinesterase activity reported in Table I was measured by a standard procedure. The enzyme employed was prepared from the electric organ of the electric eel. It is known to have the same properties as the enzyme of mammalian nervous tissue. Acetylthiocholine was used as substrate.
Inhibitory potency of substances was determined by measuring enzyme activity in the absence and presence of varying concentrations of the test substances.

SMILES | Effect on general anesthesia [1] | Effect on behavioral deficit produced by anoxia (mice) | Effect on symptoms of AD (patients with AD) | IC50 (K^+ transport) [µM] | Cholinesterase inhibition (cholinesterase) | IC50 (Acetylcholinesterase) [µM] | IC50 (Acetylcholinesterase; electric eel enzyme, acetylthiocholine substrate, read-out: Acetylcholinesterase Activity IC50) [µM] | Cholinesterase inhibitory potency relative to amodiaquin (in words) (Acetylcholinesterase) | Acetylcholinesterase Activity Rank Order (Acetylcholinesterase) | Acetylcholinesterase Activity Relative Potency (Acetylcholinesterase) | K^+ transport inhibition activity relative to amodiaquin (in words) (K^+ transport) | K^+ Transport Relative Potency (K^+ transport) | Concentration inhibiting K^+ transport (selection criterion met) (K^+ transport)
Nc1ccncc1 [4AP, 4-aminopyridine] | rapidly overcomes the effects of general anesthesia | partially reversed the behavioral deficit | may improve symptoms in some patients with AD |  |  |  |  |  |  |  |  |  | 
Nc1c2ccccc2nc2ccccc12 [9-aminoacridine] |  |  |  | 70 |  |  |  |  |  |  |  |  | 
CCN(CC)Cc1cc(Nc2ccnc3cc(Cl)ccc23)ccc1O [Amodiaquin, amodiaquin] |  |  |  | 40 | effective cholinesterase inhibitor | 0.004 |  |  |  |  |  |  | 
CCN(CC)CCCC(C)Nc1ccnc2cc(Cl)ccc12 (centres unmarked) [Chloroquine, chloroquine] |  |  |  | 600 |  |  | 4 | less than one-thousandth | 5(4) | 0.001 | approximately one-twentieth | 0.067 | ≤ 10^-3 M
CCN(CC)CCCC(C)Nc1c2ccc(Cl)cc2nc2ccc(OC)cc12 (centres unmarked) [Quinacrine, quinacrine] |  |  |  | 90 |  | 4 |  | less than one-thousandth | 4(5) | 0.001 | approximately one-half | 0.44 | ≤ 10^-3 M
